Assay results from BindingDB's records for doi:10.1016/j.bioorg.2016.01.008 (King Abdulaziz University, 2016).

Target: Alpha-glucosidase MAL12 (Saccharomyces cerevisiae (strain ATCC 204508 / S288c), UniProt P53341)
Test: In-vitro Yeast α-Glucosidase Inhibition Assay
Experimental: α-Glucosidase inhibitory activity was evaluated at 37 °C, by using 0.1M phosphatebuffer (pH6.8) [28]. The enzyme(EC3.2.1.20, Saccharomyces cerevisiae purchased from sigma; catalog # G5003) (0.2 U/mL) was incubated with test compounds and phosphate buffer at 37 °C for 15 min. After 15min of incubation, 0.7 mM of substrate i.e. p-nitrophenyl-α-D-glucopyranoside (Sigma; catalog # N1377) was added and the change in absorbance was recorded at 400 nm for 30min by using spectrophotometer (SpectraMax M2, Molecular Devices, CA, USA).

Sequence of Alpha-glucosidase MAL12 (P53341 whole entry): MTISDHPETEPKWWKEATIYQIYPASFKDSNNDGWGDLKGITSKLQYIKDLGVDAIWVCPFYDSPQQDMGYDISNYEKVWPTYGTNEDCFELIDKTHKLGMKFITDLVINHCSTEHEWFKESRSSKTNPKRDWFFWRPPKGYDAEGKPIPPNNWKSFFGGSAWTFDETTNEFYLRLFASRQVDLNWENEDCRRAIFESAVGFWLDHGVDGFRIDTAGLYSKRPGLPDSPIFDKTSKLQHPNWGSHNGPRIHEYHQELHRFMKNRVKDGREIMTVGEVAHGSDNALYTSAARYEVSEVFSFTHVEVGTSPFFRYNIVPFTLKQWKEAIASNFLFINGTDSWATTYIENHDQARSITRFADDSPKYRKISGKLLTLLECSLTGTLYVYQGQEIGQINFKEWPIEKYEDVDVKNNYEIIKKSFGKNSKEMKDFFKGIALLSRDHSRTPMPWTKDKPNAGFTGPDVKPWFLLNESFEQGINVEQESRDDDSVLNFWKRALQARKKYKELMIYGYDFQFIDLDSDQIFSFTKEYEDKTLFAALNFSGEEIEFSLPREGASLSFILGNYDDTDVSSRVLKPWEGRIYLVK

Row | Compound | IC50 [µM]
1 | Cc1[nH]nc2c1C(c1ccc([N+](=O)[O-])cc1)C(C#N)=C(N)O2 (stereo not given) [6-Amino-3-methyl-4-(4-nitrophenyl)-2,4-dihydropyrano[2,3-c]pyrazole-5-carbonitrile (1)] | 54.2
2 | Cc1n[nH]c2c1C(c1ccc(Cl)cc1Cl)C(C#N)=C(N)O2 (stereo not given) [6-Amino-4-(2,4-dichlorophenyl)-3-methyl-2,4-dihydropyrano[2,3-c]pyrazole-5-carbonitrile (4)] | 180
3 | Cc1[nH]nc2c1C(c1ccccc1OCc1ccccc1)C(C#N)=C(N)O2 (stereo not given) [6-Amino-4-(2-(benzyloxy)phenyl)-3-methyl-2,4-dihydropyrano[2,3-c]pyrazole-5-carbonitrile (33)] | 164
4 | Cc1[nH]nc2c1C(c1ccc(O)c(OCc3ccccc3)c1)C(C#N)=C(N)O2 (stereo not given) [6-Amino-4-(3-(benzyloxy)-4-hydroxyphenyl)-3-methyl-2,4-dihydropyrano[2,3-c]pyrazole-5-carbonitrile (22)] | 160
5 | COc1cc(C2C(C#N)=C(N)Oc3n[nH]c(C)c32)ccc1OCc1ccccc1 (stereo not given) [6-Amino-4-(4-(benzyloxy)-3-methoxyphenyl)-3-methyl-2,4-dihydropyrano[2,3-c]pyrazole-5-carbonitrile (30)] | 60.8
